Experimental data reported in ChEMBL document CHEMBL4831544, “Discovery of IHMT-EZH2-115 as a Potent and Selective Enhancer of Zeste Homolog 2 (EZH2) Inhibitor for the Treatment of B-Cell Lymphomas” (J Med Chem, 2021).
Blank lines part the entries; values can stand above or below the compound they belong to.

Experiments:
[1] = Antiproliferative activity against human WSUDLCL2 cells assessed as inhibition of cell growth measured after 6 days by CellTiter-Glo luminescent assay; format: functional; conditions: WSUDLCL2, 144 h, time 6 day
[2] = Cmax in rat at 1 mg/kg, iv; format: ADME, organism-based; set-up: route intravenous, dose 1 mg/kg; conditions: in vivo
[3] = Half life in rat at 1 mg/kg, iv; format: ADME, organism-based; conditions: in vivo
[4] = Half life in rat at 10 mg/kg, po; format: ADME, organism-based; conditions: in vivo
[5] = Oral bioavailability in rat at 10 mg/kg; format: ADME, organism-based; conditions: in vivo
[6] = AUC (0 to infinity) in rat at 10 mg/kg, po; format: ADME, organism-based; set-up: time infinity, route oral, dose 10 mg/kg; conditions: in vivo
[7] = Apparent volume of distribution in rat at 1 mg/kg, iv; format: ADME, organism-based; conditions: in vivo; for Vd: read-out: Vz
[8] = Clearance in rat at 10 mg/kg, po; format: ADME, organism-based; conditions: in vivo; for CL: 10 mg/kg
[9] = AUC (0 to infinity) in rat at 1 mg/kg, iv; format: ADME, organism-based; set-up: route intravenous, time infinity, dose 1 mg/kg; conditions: in vivo
[10] = Clearance in rat at 1 mg/kg, iv; format: ADME, organism-based; conditions: in vivo
[11] = Apparent volume of distribution in rat at 10 mg/kg, po; format: ADME, organism-based; conditions: in vivo
[12] = Cmax in rat at 10 mg/kg, po; format: ADME, organism-based; set-up: route oral, dose 10 mg/kg; conditions: in vivo
[13] = Toxicity in NCG mouse xenografted with human Pfeiffer cells harboring EZH2 A677G mutant assessed as effect on body weight at 200 mg/kg, po BID via gavage measured after 28 days; format: organism-based; conditions: in vivo, 672 h, time 28 day
Pfeiffer [14] = assay: Antiproliferative activity against human Pfeiffer cells harboring EZH2 A677G mutant assessed as inhibition of cell growth measured after 6 days by CellTiter-Glo luminescent assay; format: functional; conditions: 144 h, time 6 day
[15] = Antiproliferative activity against human WSUDLCL2 cells harboring EZH2 Y641F mutant assessed as inhibition of cell growth measured after 6 days by CellTiter-Glo luminescent assay; format: functional; conditions: WSUDLCL2, 144 h, time 6 day
SU-DHL-6 = assay: Antiproliferative activity against human SU-DHL-6 cells harboring EZH2 Y641N mutant assessed as inhibition of cell growth measured after 6 days by CellTiter-Glo luminescent assay; format: functional; conditions: SU-DHL-6, 144 h, time 6 day
U2932 = assay: Antiproliferative activity against human U2932 cells expressing wild type EZH2 assessed as inhibition of cell growth measured after 6 days by CellTiter-Glo luminescent assay; format: functional; conditions: U2932, 144 h, time 6 day
KARPAS-422 [16] = assay: Antiproliferative activity against human KARPAS-422 cells harboring EZH2 Y641N mutant assessed as inhibition of cell growth measured after 6 days by CellTiter-Glo luminescent assay; format: functional; conditions: KARPAS-422, 144 h, time 6 day
[17] = Toxicity in NCG mouse xenografted with human KARPAS-422 cells harboring EZH2 Y641N mutant assessed as effect on body weight at 200 mg/kg, po BID via gavage measured after 28 days; format: organism-based; conditions: in vivo, 672 h, time 28 day
KARPAS-422 [18] = assay: Antitumor activity against human KARPAS-422 cells harboring EZH2 Y641N mutant xenografted in NCG mouse assessed as change in tumor weight at 200 mg/kg, po BID via gavage measured after 28 days (reference value: 2.14 g); format: functional; conditions: time 28 day
Pfeiffer [19] = assay: Antitumor activity against human Pfeiffer cells harboring EZH2 A677G mutant xenografted in NCG mouse assessed as tumor growth inhibition at 200 mg/kg, po BID via gavage measured after 28 days relative to control; format: functional; conditions: 672 h, time 28 day, read-out: TGI
SUD4 = assay: Antiproliferative activity against human SU-DHL-4 cells harboring EZH2 Y641S mutant assessed as inhibition of cell growth measured after 6 days by CellTiter-Glo luminescent assay; format: functional; conditions: SU-DHL-4, 144 h, time 6 day
KARPAS-422 [20] = assay: Antitumor activity against human KARPAS-422 cells harboring EZH2 Y641N mutant xenografted in NCG mouse assessed as tumor growth inhibition at 200 mg/kg, po BID via gavage measured after 28 days relative to control; format: functional; conditions: KARPAS-422, po, 672 h, time 28 day, read-out: TGI

Structure (SMILES): CC[C@H](C)n1cc(C)c2c(C(=O)NCc3c(C)cc(C)[nH]c3=O)cc(-c3ccc(N4CCNCC4)nc3)cc21 [GSK2816126]
GI50 [1]: 5 µM

Structure (SMILES): CCN(C(=O)C(C)C)c1cc(-c2ccc(CN3CCOCC3)cc2)cc(C(=O)NCc2c(C)cc(C)[nH]c2=O)c1C
GI50 [1]: 0.5 µM

Cmax [2]: 673 ng/mL | half-life [3]: 1.25 h | half-life [4]: 1.46 h | bioavailability [5]: 9.4% | AUC(0-inf) [6]: 260 ng·h/mL | Vd [7]: 6.5 L/kg | CL/F [8]: 675 mL/min/kg | AUC(0-inf) [9]: 277 ng·h/mL | clearance [10]: 60.3 mL/min/kg | Vz [11]: 84.455 L/kg | Cmax [12]: 67 ng/mL
Structure (SMILES): CCN(C(=O)C1CC1)c1cc(-c2ccc(N3CCN(CC4CC4)CC3)nc2)cc(C(=O)NCc2c(C)cc(C)[nH]c2=O)c1C
GI50 [1]: 0.2 µM

Cmax [2]: 444 ng/mL | half-life [3]: 1.55 h | half-life [4]: 2.08 h | bioavailability [5]: 13% | AUC [6]: 242 ng·h/mL | Vd [7]: 9.32 L/kg | CL [8]: 1805.68 mL/min/kg | AUC(0-inf) [9]: 241 ng·h/mL | clearance [10]: 69.9 mL/min/kg | Vz [11]: 470.567 L/kg | Cmax [12]: 115 ng/mL
Structure (SMILES): CCN1CCN(c2ccc(-c3cc(C(=O)NCc4c(C)cc(C)[nH]c4=O)c(C)c(N(CC)C(=O)C4CC4)c3)cc2)CC1
GI50 [1]: 0.2 µM

GI50 (SU-DHL-6): 1.05 µM | GI50 (KARPAS-422 [16]): 0.09 µM
Structure (SMILES): CCN(c1cc(-c2ccc(CN3CCOCC3)cc2)cc(C(=O)NCc2c(C)cc(C)[nH]c2=O)c1C)C1CCOCC1 [TAZEMETOSTAT]
Activity [13]: Non-Toxic | GI50 (Pfeiffer [14]): 0.002 µM | GI50 [15]: 0.08 µM | GI50 (U2932): > 10 µM | Activity [17]: Non-Toxic | Activity (KARPAS-422 [18]): 0.23 g | inhibition in vivo at 200 mg/kg (Pfeiffer [19]): 100% | GI50 [1]: 0.3 µM | GI50 (SUD4): 3.39 µM | inhibition in vivo at 200 mg/kg (KARPAS-422 [20]): 89.3%

Structure (SMILES): Cc1cc(C)c(CNC(=O)c2cc(-c3ccc(CN4CCOCC4)cc3)cc3c2CCN3C(=O)c2ccco2)c(=O)[nH]1
GI50 [1]: 51.6 µM

Cmax [2]: 824 ng/mL | half-life [3]: 0.38 h | half-life [4]: 1.03 h | bioavailability [5]: 15.1% | AUC(0-inf) [6]: 406 ng·h/mL | Vd [7]: 2.03 L/kg | CL/F [8]: 542 mL/min/kg | AUC(0-inf) [9]: 269 ng·h/mL | clearance [10]: 62.7 mL/min/kg | Vz [11]: 53.401 L/kg | Cmax [12]: 473 ng/mL
Structure (SMILES): CCN(C(=O)C1CCCC1)c1cc(-c2ccc(CN3CCOCC3)cc2)cc(C(=O)NCc2c(C)cc(C)[nH]c2=O)c1C
GI50 [1]: 0.3 µM

Structure (SMILES): Cc1cc(C)c(CNC(=O)c2cc(-c3ccc(CN4CCOCC4)cc3)cc3c2CCN3C(=O)C2CC2)c(=O)[nH]1
GI50 [1]: 50.5 µM

Structure (SMILES): CCN(C(=O)c1ccccc1)c1cc(-c2ccc(CN3CCOCC3)cc2)cc(C(=O)NCc2c(C)cc(C)[nH]c2=O)c1C
GI50 [1]: 34.7 µM

Structure (SMILES): CCN(C(C)=O)c1cc(-c2ccc(CN3CCOCC3)cc2)cc(C(=O)NCc2c(C)cc(C)[nH]c2=O)c1C
GI50 [1]: 13 µM

Structure (SMILES): CCN(C(=O)C1CC1)c1cc(-c2ccc(N3CCNCC3)cc2)cc(C(=O)NCc2c(C)cc(C)[nH]c2=O)c1C
GI50 [1]: 0.2 µM

Structure (SMILES): CCN(C(=O)C1CCOCC1)c1cc(-c2ccc(CN3CCOCC3)cc2)cc(C(=O)NCc2c(C)cc(C)[nH]c2=O)c1C
GI50 [1]: 16.2 µM

Structure (SMILES): CCN(C(=O)C1CC1)c1cc(-c2ccc(N)cc2)cc(C(=O)NCc2c(C)cc(C)[nH]c2=O)c1C
GI50 [1]: 0.8 µM

Structure (SMILES): CCN(C(=O)C1CC1)c1cc(-c2cnc(N3CCN(CC4CC4)CC3)cc2C)cc(C(=O)NCc2c(C)cc(C)[nH]c2=O)c1C
GI50 [1]: 0.2 µM

Cmax [2]: 609 ng/mL | t1/2 ([3]; 1 mg/kg): 1.79 h | t1/2 ([4]; 10 mg/kg): 1.82 h | bioavailability [5]: 4.8% | AUC [6]: 132 ng·h/mL | Vz ([7]; 1 mg/kg): 79.554 L/kg | CL [8]: 155.8 mL/min/kg | AUC(0-inf) [9]: 277 ng·h/mL | CL ([10]; 1 mg/kg): 60.87 mL/min/kg | Vz [11]: 205.232 L/kg | Cmax [12]: 42 ng/mL
Structure (SMILES): CCN(C(=O)C1CC1)c1cc(-c2cnc(N3CCN(CC4CC4)CC3)c(C)c2)cc(C(=O)NCc2c(C)cc(C)[nH]c2=O)c1C
GI50 [1]: 0.3 µM

Structure (SMILES): CCN(C(=O)C1CCC1)c1cc(-c2ccc(CN3CCOCC3)cc2)cc(C(=O)NCc2c(C)cc(C)[nH]c2=O)c1C
GI50 [1]: 0.9 µM

Structure (SMILES): CCN(C(=O)C1CC1)c1cc(-c2ccc(NC(=O)c3cccnc3)cc2)cc(C(=O)NCc2c(C)cc(C)[nH]c2=O)c1C
GI50 [1]: 0.8 µM

Structure (SMILES): CCN(C(=O)C1CC1)c1cc(-c2ccc(NC(=O)CCN(C)C)cc2)cc(C(=O)NCc2c(C)cc(C)[nH]c2=O)c1C
GI50 [1]: 1.8 µM

Cmax [2]: 686 ng/mL | half-life [3]: 0.8 h | half-life [4]: 1.88 h | bioavailability [5]: 10.1% | AUC(0-inf) [6]: 244 ng·h/mL | Vd [7]: 4.8 L/kg | CL/F [8]: 1170 mL/min/kg | AUC(0-inf) [9]: 242 ng·h/mL | clearance [10]: 69.1 mL/min/kg | Vz [11]: 208.585 L/kg | Cmax [12]: 106 ng/mL
Structure (SMILES): CCN(C(=O)C1CC1)c1cc(-c2ccc(CN3CCOCC3)cc2)cc(C(=O)NCc2c(C)cc(C)[nH]c2=O)c1C
GI50 [1]: 0.2 µM

Structure (SMILES): CCN(C(=O)C1CC1)c1cc(-c2ccc(NC(=O)C3CCOCC3)cc2)cc(C(=O)NCc2c(C)cc(C)[nH]c2=O)c1C
GI50 [1]: 0.7 µM

Structure (SMILES): CCN(C(=O)C1CC1)c1cc(-c2ccc(NC(=O)c3cccs3)cc2)cc(C(=O)NCc2c(C)cc(C)[nH]c2=O)c1C
GI50 [1]: 0.9 µM

Structure (SMILES): CCN(C(=O)C1CC1)c1cc(-c2ccc(N3CCOCC3)cc2)cc(C(=O)NCc2c(C)cc(C)[nH]c2=O)c1C
GI50 [1]: 0.2 µM

Structure (SMILES): CCN(C(=O)C1CC1)c1cc(-c2ccc(N3CCN(CC4CC4)CC3)cc2)cc(C(=O)NCc2c(C)cc(C)[nH]c2=O)c1C
GI50 [1]: 0.1 µM

Structure (SMILES): CCN(C(=O)C1CCCCC1)c1cc(-c2ccc(CN3CCOCC3)cc2)cc(C(=O)NCc2c(C)cc(C)[nH]c2=O)c1C
GI50 [1]: 32.4 µM

Structure (SMILES): Cc1cc(C)c(CNC(=O)c2cc(-c3ccc(CN4CCOCC4)cc3)cc3c2CCN3C(=O)C2CCOCC2)c(=O)[nH]1
GI50 [1]: 94.5 µM

Structure (SMILES): CCC(=O)N(CC)c1cc(-c2ccc(CN3CCOCC3)cc2)cc(C(=O)NCc2c(C)cc(C)[nH]c2=O)c1C
GI50 [1]: 0.9 µM

Structure (SMILES): Cc1cc(C)c(CNC(=O)c2cc(-c3ccc(CN4CCOCC4)cc3)cc3c2CCN3C(=O)C2CCCC2)c(=O)[nH]1
GI50 [1]: 44 µM
